Assay results from ChEMBL document CHEMBL3727355, “Chemokine receptor activity regulator” (2014).

Target: T1, C-C chemokine receptor type 10 (Homo sapiens) (UniProt P46092)
T1 sequence (whole entry): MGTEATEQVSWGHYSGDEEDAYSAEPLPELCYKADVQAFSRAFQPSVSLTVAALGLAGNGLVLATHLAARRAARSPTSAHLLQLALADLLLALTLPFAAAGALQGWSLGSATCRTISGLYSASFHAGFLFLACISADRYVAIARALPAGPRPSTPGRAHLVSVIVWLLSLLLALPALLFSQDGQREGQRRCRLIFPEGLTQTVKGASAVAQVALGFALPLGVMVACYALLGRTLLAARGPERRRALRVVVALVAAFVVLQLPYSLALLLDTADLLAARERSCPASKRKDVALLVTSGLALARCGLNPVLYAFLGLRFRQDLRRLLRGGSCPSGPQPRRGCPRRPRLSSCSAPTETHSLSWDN
Experiment: Antagonist activity against human CCR10 expressed in human KJMGER8 cells assessed as inhibition of human recombinant CTACK-induced increase in intracellular calcium level at 100 nmol/L pre-incubated for 30 mins before human recombinant CTACK stimulation for 5 mins by FLIPR assay
Type: functional, cell-based

Row | inhibition [%] | Compound
1 | > 100 | Cc1cc(F)ccc1Nc1c(C(=O)N2CCC(c3ccccc3)CC2)cnc2c(S(=O)(=O)NC(=O)C(F)(F)F)cnn12
2 | > 100 | Cc1cc(Nc2c(C(=O)N3CCC(c4ccc(F)cc4)CC3)cnc3c(S(=O)(=O)NC(=O)C4CC4)cnn23)c(Cl)cc1F
3 | > 100 | CCC(=O)NS(=O)(=O)c1cnn2c(Nc3cc(F)ccc3F)c(C(=O)N3CCC(c4ccc(F)cc4)CC3)cnc12
4 | > 100 | Cc1cc(F)ccc1Nc1c(C(=O)N2CCC(c3ccc(F)cc3)CC2)cnc2c(S(=O)(=O)NCC(F)(F)F)cnn12
5 | > 100 | O=C(c1cnc2c(S(=O)(=O)Nc3ncccn3)cnn2c1Nc1cc(Cl)ccc1Cl)N1CCC(c2ccc(F)cc2)CC1
6 | 98.9 | O=C(NS(=O)(=O)c1cnn2c(Nc3ccccc3Cl)c(C(=O)N3CCC(c4ccccc4)CC3)cnc12)C1CC1
7 | 92.4 | CCNC(=O)NS(=O)(=O)c1cnn2c(Nc3ccccc3Cl)c(C(=O)N3CCC(c4ccccc4)CC3)cnc12
8 | > 100 | CCC(=O)NS(=O)(=O)c1cnn2c(Nc3cc(C)c(F)cc3Cl)c(C(=O)N3CCC(c4ccc(F)cc4)CC3)cnc12
9 | 90.7 | CCNC(=O)NS(=O)(=O)c1cnn2c(Nc3ccc(Cl)cc3Cl)c(C(=O)N3CCC(c4ccc(F)cc4)CC3)cnc12
10 | > 100 | O=C(NS(=O)(=O)c1cnn2c(Nc3cc(Cl)ccc3Cl)c(C(=O)N3CCC4(CC3)OCc3ccccc34)cnc12)C1CC1
11 | > 100 | CCC(=O)NS(=O)(=O)c1cnn2c(Nc3cc(C(F)(F)F)ccc3Cl)c(C(=O)N3CCC(c4ccc(F)cc4)CC3)cnc12
12 | 90.2 | CCC(=O)NS(=O)(=O)c1cnn2c(Nc3cc(C)ccc3Cl)c(C(=O)N3CC4(C3)CN(c3ccc(F)cc3)C4)cnc12
13 | 89.4 | O=C(NS(=O)(=O)c1cnn2c(NCc3ccccc3)c(C(=O)N3CCC(c4ccccc4)CC3)cnc12)C1CC1
14 | > 100 | CCNC(=O)NS(=O)(=O)c1cnn2c(Nc3cc(F)ccc3Cl)c(C(=O)N3CCC(c4ccc(F)cc4)CC3)cnc12
15 | > 100 | CCNC(=O)NS(=O)(=O)c1cnn2c(Nc3cc(C)c(F)cc3Cl)c(C(=O)N3CCC(c4ccc(F)cc4)CC3)cnc12
16 | 62.3 | Cc1ccc(Cl)c(Nc2c(C(=O)N3CCC4(CC3)OCc3ccccc34)cnc3c(S(=O)(=O)NC(=O)NC4CCOCC4)cnn23)c1
17 | > 100 | Cc1cc(Cl)ccc1Nc1c(C(=O)N2CCC3(CC2)OCc2ccccc23)cnc2c(S(=O)(=O)NC(=O)C3CC3)cnn12
18 | > 100 | CCNC(=O)NS(=O)(=O)c1cnn2c(Nc3cc(Cl)ccc3F)c(C(=O)N3CCC(c4ccc(F)cc4)CC3)cnc12
19 | > 100 | CCONS(=O)(=O)c1cnn2c(Nc3cc(Cl)ccc3Cl)c(C(=O)N3CCC(c4ccc(F)cc4)CC3)cnc12
20 | > 100 | CC(=O)NS(=O)(=O)c1cnn2c(Nc3cccc(Cl)c3Cl)c(C(=O)N3CCC(c4ccc(F)cc4)CC3)cnc12
21 | > 100 | O=CNS(=O)(=O)c1cnn2c(Nc3cc(Cl)ccc3Cl)c(C(=O)N3CCC(c4ccc(F)cc4)CC3)cnc12
22 | > 100 | CCC(=O)NS(=O)(=O)c1cnn2c(Nc3cc(C)ccc3Cl)c(C(=O)N3CCC4(CC3)OCc3ccccc34)cnc12
23 | > 100 | O=C(c1cnc2c(S(=O)(=O)Nc3cccnn3)cnn2c1Nc1cc(Cl)ccc1Cl)N1CCC(c2ccc(F)cc2)CC1

Row | inhibition [%] | Compound
24 | > 100 | COC(=O)NS(=O)(=O)c1cnn2c(Nc3cc(C)ccc3C)c(C(=O)N3CCC(c4ccccc4)CC3)cnc12
25 | 93.4 | Cc1cc(F)ccc1Nc1c(C(=O)N2CCC(c3ccccc3)CC2)cnc2c(S(=O)(=O)NC(=O)C3CC3)cnn12
26 | > 100 | CCC(=O)NS(=O)(=O)c1cnn2c(Nc3cc(Cl)ccc3Cl)c(C(=O)N3CCC4(CC3)OCc3ccccc34)cnc12
27 | > 100 | CCNC(=O)NS(=O)(=O)c1cnn2c(Nc3ccc(Cl)c(Cl)c3)c(C(=O)N3CCC(c4ccc(F)cc4)CC3)cnc12
28 | 99.6 | COC(=O)NS(=O)(=O)c1cnn2c(Nc3ccccc3Cl)c(C(=O)N3CCC(c4ccccc4)CC3)cnc12
29 | > 100 | CCNS(=O)(=O)c1cnn2c(Nc3ccc(Cl)cc3C)c(C(=O)N3CCC(c4ccc(F)cc4)CC3)cnc12
30 | > 100 | CCNC(=O)NS(=O)(=O)c1cnn2c(Nc3cc(C)ccc3Cl)c(C(=O)N3CCC(c4ccc(F)cc4)CC3)cnc12
31 | 68.9 | Cc1cc(F)ccc1Nc1c(C(=O)N2CCC(c3ccccc3)CC2)cnc2c(S(=O)(=O)/N=C/N(C)C)cnn12
32 | > 100 | CCNC(=O)NS(=O)(=O)c1cnn2c(Nc3ccccc3Cl)c(C(=O)N3CCC(c4ccc(F)cc4)CC3)cnc12
33 | > 100 | Cc1ccc(Cl)c(Nc2c(C(=O)N3CCC4(CC3)OCc3ccccc34)cnc3c(S(=O)(=O)NC(=O)C4(C)COC4)cnn23)c1
34 | 58.8 | CNCC(=O)NS(=O)(=O)c1cnn2c(Nc3ccc(F)cc3C)c(C(=O)N3CCC(c4ccccc4)CC3)cnc12
35 | > 100 | CCNS(=O)(=O)c1cnn2c(Nc3ccc(F)cc3C)c(C(=O)N3CCC(c4ccc(F)cc4)CC3)cnc12
36 | > 100 | CCN(CC)S(=O)(=O)c1cnn2c(Nc3ccc(F)cc3C)c(C(=O)N3CCC(c4ccccc4)CC3)cnc12
37 | 81.8 | CCNC(=S)NS(=O)(=O)c1cnn2c(Nc3ccc(F)cc3C)c(C(=O)N3CCC(c4ccccc4)CC3)cnc12
38 | 92 | CCNC(=O)NS(=O)(=O)c1cnn2c(Nc3ccc(F)cc3C)c(C(=O)N3CCC4(CC3)OCc3ccccc34)cnc12
39 | 94.2 | COCC(=O)NS(=O)(=O)c1cnn2c(Nc3ccc(F)cc3C)c(C(=O)N3CCC(c4ccccc4)CC3)cnc12
40 | > 100 | CCC(=O)NS(=O)(=O)c1cnn2c(Nc3cc(Cl)ccc3Cl)c(C(=O)N3CCC(c4ccc(F)cc4)CC3)cnc12
41 | 80.6 | O=C(NS(=O)(=O)c1cnn2c(Nc3ccccc3Cl)c(C(=O)N3CCC(c4ccc(F)cc4)CC3)cnc12)C1CC1
42 | 90.7 | COC(=O)NS(=O)(=O)c1cnn2c(Nc3ccc(F)cc3C)c(C(=O)N3CCC(c4ccccc4)CC3)cnc12
43 | > 100 | CC1(C(=O)NS(=O)(=O)c2cnn3c(Nc4cc(Cl)ccc4Cl)c(C(=O)N4CCC(c5ccc(F)cc5)CC4)cnc23)COC1
44 | > 100 | Cc1ccc(F)c(Nc2c(C(=O)N3CCC(c4ccc(F)cc4)CC3)cnc3c(S(=O)(=O)NC(=O)NC4CC4)cnn23)c1
45 | > 100 | CCC(=O)NS(=O)(=O)c1cnn2c(Nc3cc(C)ccc3Cl)c(C(=O)N3CCC(c4ccc(F)cc4)CC3)cnc12
46 | > 100 | Cc1ccc(Cl)c(Nc2c(C(=O)N3CCC(c4ccc(F)cc4)CC3)cnc3c(S(=O)(=O)NC(=O)NC4CC4(F)F)cnn23)c1 (centres undefined)

Row | inhibition [%] | Compound
47 | > 100 | CCC(=O)NS(=O)(=O)c1cnn2c(Nc3cc(C)ccc3F)c(C(=O)N3CCC(c4ccc(F)cc4)CC3)cnc12
48 | > 100 | CC(=O)NS(=O)(=O)c1cnn2c(Nc3ccc(F)cc3C)c(C(=O)N3CCC(c4ccccc4)CC3)cnc12
49 | 80.3 | CCNS(=O)(=O)c1cnn2c(Nc3cc(C)ccc3Cl)c(C(=O)N3CCC4(CC3)OCc3ccccc34)cnc12
50 | 96.7 | CCNC(=O)NS(=O)(=O)c1cnn2c(Nc3cc(Cl)ccc3Cl)c(C(=O)N3CCC(c4ccc(F)cc4)CC3)cnc12
51 | 95.2 | CCNC(=O)NS(=O)(=O)c1cnn2c(Nc3cc(C)ccc3Cl)c(C(=O)N3CCC4(CC3)OCc3ccccc34)cnc12
52 | > 100 | Cc1cc(F)ccc1Nc1c(C(=O)N2CCC(c3ccccc3)CC2)cnc2c(S(=O)(=O)NC(=O)CO)cnn12
53 | > 100 | CC(=O)NS(=O)(=O)c1cnn2c(Nc3cc(C)ccc3Cl)c(C(=O)N3CCC4(CC3)OCc3ccccc34)cnc12
54 | > 100 | CCNC(=O)NS(=O)(=O)c1cnn2c(Nc3ccc(Cl)cc3C)c(C(=O)N3CCC4(CC3)OCc3ccccc34)cnc12
55 | 88.8 | Cc1cc(F)ccc1Nc1c(C(=O)N2CCC(c3ccccc3)CC2)cnc2c(S(=O)(=O)NS(C)(=O)=O)cnn12
56 | > 100 | Cc1ccc(F)c(Nc2c(C(=O)N3CCC4(CC3)OCc3ccccc34)cnc3c(S(=O)(=O)NC(=O)C4CC4)cnn23)c1
57 | 97 | CCC(=O)NS(=O)(=O)c1cnn2c(Nc3ccc(Cl)cc3Cl)c(C(=O)N3CCC(c4ccc(F)cc4)CC3)cnc12
58 | 75.3 | Cc1ccc(Cl)c(Nc2c(C(=O)N3CCC4(CC3)OCc3ccccc34)cnc3c(S(=O)(=O)NC(=O)NCC(F)(F)F)cnn23)c1
59 | > 100 | CCNS(=O)(=O)c1cnn2c(Nc3ccc(F)cc3C)c(C(=O)N3CCC(c4ccccc4)CC3)cnc12
60 | 85.9 | Cc1cc(F)ccc1Nc1c(C(=O)N2CCC(c3ccccc3)CC2)cnc2c(S(=O)(=O)NC(=O)N3CCOCC3)cnn12
61 | 24.3 | CCNC(=O)NS(=O)(=O)c1cnn2c(Nc3cc(C)ccc3Cl)c(C(=O)N3CC4(C3)CN(c3ccc(F)cc3)C4)cnc12
62 | > 100 | CC(=O)NS(=O)(=O)c1cnn2c(Nc3cc(F)ccc3F)c(C(=O)N3CCC(c4ccc(F)cc4)CC3)cnc12
63 | 63.7 | Cc1cc(F)ccc1Nc1c(C(=O)N2CCC(c3ccccc3)CC2)cnc2c(S(=O)(=O)NC(=O)Nc3ccccc3)cnn12
64 | > 100 | CCC(=O)NS(=O)(=O)c1cnn2c(Nc3ccc(F)cc3Cl)c(C(=O)N3CCC4(CC3)OCc3ccccc34)cnc12
65 | 87.8 | CCNS(=O)(=O)c1cnn2c(Nc3cc(C)ccc3Cl)c(C(=O)N3CCC(c4ccc(F)cc4)CC3)cnc12
66 | 72.6 | CCNC(=O)NS(=O)(=O)c1cnn2c(Nc3ccc(F)cc3C)c(C(=O)N3CCC(c4ccccc4)CC3)cnc12
67 | > 100 | CCNC(=O)NS(=O)(=O)c1cnn2c(Nc3ccc(C)cc3F)c(C(=O)N3CCC4(CC3)OCc3ccccc34)cnc12
68 | > 100 | CC(=O)NS(=O)(=O)c1cnn2c(Nc3cc(Cl)ccc3F)c(C(=O)N3CCC(c4ccc(F)cc4)CC3)cnc12
69 | > 100 | Cc1ccc(F)c(Nc2c(C(=O)N3CCC4(CC3)OCc3ccccc34)cnc3c(S(=O)(=O)NC(=O)NC4CC4(F)F)cnn23)c1 (centres undefined)
